Experimental data published in PubChem BioAssay (NCI).
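Results reflect a 48-hour exposure of cells in 96-well plates to compound at five concentrations. The concentration for full growth arrest is given as TGI.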

Legend:
Assay in all cases: NCI-60 cell line screen, 48 h
[1] = system: OVCAR-3 ovarian
[2] = system: SF-539 CNS
[3] = system: DLD-1 colon
[4] = system: NCI-H522 lung
[5] = system: SW-620 colon
[6] = system: HCT-116 colon
[7] = system: OVCAR-8 ovarian
[8] = system: DMS 114 small cell lung
[9] = system: ACHN renal
[10] = system: EKVX NSCLC
[11] = system: SK-MEL-2 melanoma
[12] = system: SNB-75 CNS
[13] = system: UACC-62 melanoma
[14] = system: CCRF-CEM leukemia
[15] = system: U251 CNS
[16] = system: NCI-H460 lung
[17] = system: IGROV1 ovarian
[18] = system: TK-10 renal
[19] = system: SK-OV-3 ovarian
[20] = system: M14 melanoma
[21] = system: KM12 colon
[22] = system: A549 NSCLC
[23] = system: NCI-H226 lung
[24] = system: HL-60(TB) leukemia
[25] = system: LOX IMVI melanoma
[26] = system: OVCAR-4 ovarian
[27] = system: 786-0 renal
[28] = system: HCC-2998 colon
[29] = system: HOP-62 NSCLC
[30] = system: COLO 205 colon
[31] = system: KM20L2 colon
[32] = system: MOLT-4 leukemia
[33] = system: K-562 leukemia
[34] = system: NCI-H23 lung
[35] = system: HCT-15 colon
[36] = system: MALME-3M melanoma
[37] = system: SK-MEL-28 melanoma
[38] = system: RPMI-8226 leukemia
[39] = system: CAKI-1 renal
[40] = system: HOP-18 NSCLC
[41] = system: SF-268 CNS
[42] = system: A498 renal
[43] = system: OVCAR-5 ovarian
[44] = system: HT29 colon
[45] = system: DMS 273 small cell lung
[46] = system: HOP-92 NSCLC
[47] = system: SF-295 CNS
[48] = system: LXFL 529 NSCLC
[49] = system: SN12C renal
[50] = system: M19-MEL melanoma
[51] = system: SNB-19 CNS
[52] = system: SK-MEL-5 melanoma
[53] = system: UO-31 renal
[54] = system: SNB-78 CNS
[55] = system: UACC-257 melanoma
[56] = system: SR leukemia
[57] = system: XF 498 CNS

CCOC(=O)C(=Cc1ccc(C(=O)OC)cc1)C(=O)OCC
TGI [1]: 9.57 µM | TGI [2]: 3.17 µM | TGI [3]: 4.46 µM | TGI [4]: 2.8 µM | TGI [5]: 6.11 µM | TGI [6]: 12.5 µM | TGI [7]: 10.3 µM | TGI [8]: 3.74 µM | TGI [9]: 3.48 µM | TGI [10]: 26.9 µM | TGI [11]: 3.37 µM | TGI [12]: 4.65 µM | TGI [13]: 5.47 µM | TGI [14]: 4.71 µM | TGI [15]: 4.77 µM | TGI [16]: 55.2 µM | TGI [17]: 7.73 µM | TGI [18]: 7.34 µM | TGI [19]: 26.4 µM | TGI [20]: 3.36 µM | TGI [21]: 8.15 µM | TGI [22]: 12.4 µM | TGI [23]: 4.45 µM | TGI [24]: 4.36 µM | TGI [25]: 3.55 µM | TGI [26]: 14 µM | TGI [27]: 3.15 µM | TGI [28]: 12.1 µM | TGI [29]: 4.43 µM | TGI [30]: 3.59 µM | TGI [31]: 14.1 µM | TGI [32]: 7.74 µM | TGI [33]: > 100 µM | TGI [34]: 3.36 µM | TGI [35]: 6.76 µM | TGI [36]: 3.52 µM | TGI [37]: 3.34 µM | TGI [38]: 4.73 µM | TGI [39]: 3.35 µM | TGI [40]: 10.7 µM | TGI [41]: 6.51 µM | TGI [42]: 26 µM | TGI [43]: 21.9 µM | TGI [44]: 18.1 µM | TGI [45]: 3.9 µM | TGI [46]: 4.02 µM | TGI [47]: 19.2 µM | TGI [48]: 3.62 µM | TGI [49]: 5 µM | TGI [50]: 10.2 µM | TGI [51]: 6.47 µM | TGI [52]: 4.64 µM

Cc1cccc(NC(=O)C(=O)C(C(=O)c2ccccc2F)C2OC(=O)c3ccccc32)c1Cl (stereo not given)
TGI [53]: > 100 µM | TGI [2]: 40.4 µM | TGI [3]: > 100 µM | TGI [4]: 79.9 µM | TGI [5]: > 100 µM | TGI [6]: 45.3 µM | TGI [7]: 50.6 µM | TGI [8]: 53 µM | TGI [9]: > 100 µM | TGI [10]: > 100 µM | TGI [11]: > 100 µM | TGI [12]: 64.2 µM | TGI [13]: 85.4 µM | TGI [54]: > 100 µM | TGI [14]: 83 µM | TGI [15]: 36 µM | TGI [16]: > 100 µM | TGI [17]: > 100 µM | TGI [18]: > 100 µM | TGI [19]: > 100 µM | TGI [20]: > 100 µM | TGI [21]: 94.5 µM | TGI [22]: > 100 µM | TGI [23]: 62.3 µM | TGI [24]: 56.2 µM | TGI [25]: 43.3 µM | TGI [26]: > 100 µM | TGI [28]: 43.7 µM | TGI [29]: > 100 µM | TGI [30]: 38.1 µM | TGI [31]: 88.5 µM | TGI [32]: > 100 µM | TGI [33]: > 100 µM | TGI [34]: 81.8 µM | TGI [35]: 73.3 µM | TGI [55]: > 100 µM | TGI [37]: > 100 µM | TGI [38]: > 100 µM | TGI [39]: > 100 µM | TGI [41]: 80.9 µM | TGI [42]: > 100 µM | TGI [43]: > 100 µM | TGI [44]: > 100 µM | TGI [45]: > 100 µM | TGI [46]: > 100 µM | TGI [56]: > 100 µM | TGI [47]: > 100 µM | TGI [48]: > 100 µM | TGI [49]: > 100 µM | TGI [50]: > 100 µM | TGI [51]: > 100 µM | TGI [57]: > 100 µM | TGI [52]: > 100 µM
